Source: ChEMBL document CHEMBL3046966, “Structure and Fungicidal Activities of 2-Methoxyimino-N-methyl-2-[2-(substituted pyridyloxymethyl)phenyl]acetamide Derivatives” (1998)

Experiments:
Type in all cases: functional
[1] = tested on: Pseudoperonospora cubensis; test: Fungicidal activity against Pseudoperonospora cubensis assessed as cucumber downy mildew disease control at 31.3 ppm foliar application 24 hr after inoculation by preventive manner
Botrytis cinerea [2] = test: Fungicidal activity against Botryotinia fuckeliana assessed as cucumber gray mold disease control at 2 ppm foliar application 24 hr after inoculation by curative manner
Botrytis cinerea [3] = test: Fungicidal activity against Botryotinia fuckeliana assessed as cucumber gray mold disease control at 2 ppm foliar application 24 hr before inoculation by preventive manner
Podosphaera fuliginea [4] = test: Fungicidal activity against Podosphaera fuligineas assessed as cucumber […] mildew disease control at 31.3 ppm foliar application 24 hr after inoculation by curative manner
[5] = tested on: Pseudoperonospora cubensis; test: Fungicidal activity against Pseudoperonospora cubensis assessed as cucumber downy mildew disease control at 7.8 ppm foliar application 24 hr after inoculation by curative manner
Podosphaera fuliginea [6] = test: Fungicidal activity against Podosphaera fuligineas assessed as cucumber […] mildew disease control at 31.3 ppm foliar application 24 hr before inoculation by preventive manner
[7] = tested on: Blumeria graminis f. sp. tritici; test: Fungicidal activity against Blumeria graminis f. sp. tritici assessed as wheat powdery mildew disease control at 2 ppm foliar application for 24 hr after inoculation by curative manner
[8] = tested on: Blumeria graminis f. sp. tritici; test: Fungicidal activity against Blumeria graminis f. sp. tritici assessed as wheat powdery mildew disease control at 7.8 ppm foliar application for 24 hr before inoculation by preventive manner
Pyricularia oryzae [9] = test: Fungicidal activity against Magnaporthe oryzae assessed as rice blast disease control at 31.3 ppm foliar application for 24 hr after inoculation by curative manner
Pyricularia oryzae [10] = test: Fungicidal activity against Magnaporthe oryzae assessed as rice blast disease control at 125 ppm foliar application for 24 hr before inoculation by preventive manner
Botrytis cinerea [11] = test: Fungicidal activity against Botryotinia fuckeliana assessed as cucumber gray mold disease control at 7.8 ppm foliar application 24 hr before inoculation by preventive manner
[12] = tested on: Pseudoperonospora cubensis; test: Fungicidal activity against Pseudoperonospora cubensis assessed as cucumber downy mildew disease control at 31.3 ppm foliar application 24 hr after inoculation by curative manner
Podosphaera fuliginea [13] = test: Fungicidal activity against Podosphaera fuligineas assessed as cucumber […] mildew disease control at 2 ppm foliar application 24 hr after inoculation by curative manner
Podosphaera fuliginea [14] = test: Fungicidal activity against Podosphaera fuligineas assessed as cucumber […] mildew disease control at 7.8 ppm foliar application 24 hr before inoculation by preventive manner
[15] = tested on: Blumeria graminis f. sp. tritici; test: Fungicidal activity against Blumeria graminis f. sp. tritici assessed as wheat powdery mildew disease control at 2 ppm foliar application for 24 hr before inoculation by preventive manner
Pyricularia oryzae [16] = test: Fungicidal activity against Magnaporthe oryzae assessed as rice blast disease control at 2 ppm foliar application for 24 hr after inoculation by curative manner
Pyricularia oryzae [17] = test: Fungicidal activity against Magnaporthe oryzae assessed as rice blast disease control at 2 ppm foliar application for 24 hr before inoculation by preventive manner
[18] = tested on: Pseudoperonospora cubensis; test: Fungicidal activity against Pseudoperonospora cubensis assessed as cucumber downy mildew disease control at 7.8 ppm foliar application 24 hr after inoculation by preventive manner
[19] = tested on: Pseudoperonospora cubensis; test: Fungicidal activity against Pseudoperonospora cubensis assessed as cucumber downy mildew disease control at 2 ppm foliar application 24 hr after inoculation by curative manner
Podosphaera fuliginea [20] = test: Fungicidal activity against Podosphaera fuligineas assessed as cucumber […] mildew disease control at 2 ppm foliar application 24 hr before inoculation by preventive manner
Pyricularia oryzae [21] = test: Fungicidal activity against Magnaporthe oryzae assessed as rice blast disease control at 7.8 ppm foliar application for 24 hr after inoculation by curative manner
Pyricularia oryzae [22] = test: Fungicidal activity against Magnaporthe oryzae assessed as rice blast disease control at 7.8 ppm foliar application for 24 hr before inoculation by preventive manner
Botrytis cinerea [23] = test: Fungicidal activity against Botryotinia fuckeliana assessed as cucumber gray mold disease control at 31.3 ppm foliar application 24 hr before inoculation by preventive manner
[24] = tested on: Pseudoperonospora cubensis; test: Fungicidal activity against Pseudoperonospora cubensis assessed as cucumber downy mildew disease control at 2 ppm foliar application 24 hr before inoculation by preventive manner
Botrytis cinerea [25] = test: Fungicidal activity against Botryotinia fuckeliana assessed as cucumber gray mold disease control at 31.3 ppm foliar application 24 hr after inoculation by curative manner
[26] = tested on: Blumeria graminis f. sp. tritici; test: Fungicidal activity against Blumeria graminis f. sp. tritici assessed as wheat powdery mildew disease control at 7.8 ppm foliar application for 24 hr after inoculation by curative manner
Botrytis cinerea [27] = test: Fungicidal activity against Botryotinia fuckeliana assessed as cucumber gray mold disease control at 7.8 ppm foliar application 24 hr after inoculation by curative manner
[28] = tested on: Pseudoperonospora cubensis; test: Fungicidal activity against Pseudoperonospora cubensis assessed as cucumber downy mildew disease control at 125 ppm foliar application 24 hr after inoculation by preventive manner
Botrytis cinerea [29] = test: Fungicidal activity against Botryotinia fuckeliana assessed as cucumber gray mold disease control at 125 ppm foliar application 24 hr before inoculation by preventive manner
Podosphaera fuliginea [30] = test: Fungicidal activity against Podosphaera fuligineas assessed as cucumber […] mildew disease control at 7.8 ppm foliar application 24 hr after inoculation by curative manner
Botrytis cinerea [31] = test: Fungicidal activity against Botryotinia fuckeliana assessed as cucumber gray mold disease control at 125 ppm foliar application 24 hr after inoculation by curative manner
[32] = tested on: Blumeria graminis f. sp. tritici; test: Fungicidal activity against Blumeria graminis f. sp. tritici assessed as wheat powdery mildew disease control at 125 ppm foliar application for 24 hr after inoculation by curative manner
[33] = tested on: Blumeria graminis f. sp. tritici; test: Fungicidal activity against Blumeria graminis f. sp. tritici assessed as wheat powdery mildew disease control at 31.3 ppm foliar application for 24 hr before inoculation by preventive manner
Pyricularia oryzae [34] = test: Fungicidal activity against Magnaporthe oryzae assessed as rice blast disease control at 125 ppm foliar application for 24 hr after inoculation by curative manner
Pyricularia oryzae [35] = test: Fungicidal activity against Magnaporthe oryzae assessed as rice blast disease control at 31.3 ppm foliar application for 24 hr before inoculation by preventive manner
[36] = tested on: Blumeria graminis f. sp. tritici; test: Fungicidal activity against Blumeria graminis f. sp. tritici assessed as wheat powdery mildew disease control at 31.3 ppm foliar application for 24 hr after inoculation by curative manner

| Structure (SMILES) | Activity (Botrytis cinerea [2]) | Activity [7] | Activity [8] | Activity (Pyricularia oryzae [9]) | Activity (Pyricularia oryzae [10]) | Activity (Botrytis cinerea [11]) | Activity [12] | Activity (Podosphaera fuliginea [13]) | Activity (Podosphaera fuliginea [14]) | Activity [15] | Activity [19] | Activity (Podosphaera fuliginea [20]) | Activity (Pyricularia oryzae [21]) | Activity (Pyricularia oryzae [22]) | Activity (Botrytis cinerea [25]) | Activity [28] | other results |
| --- | --- | --- | --- | --- | --- | --- | --- | --- | --- | --- | --- | --- | --- | --- | --- | --- | --- |
| CNC(=O)/C(=N/OC)c1ccccc1COc1ccc(Cl)cn1 | 90% | 90% | 90% | 90% | 90% | – | – | – | – | – | – | – | – | – | – | – | Activity [1]: 90%; Activity (Botrytis cinerea [3]): 90%; Activity (Podosphaera fuliginea [4]): 90%; Activity [5]: 90%; Activity (Podosphaera fuliginea [6]): 90% |
| CNC(=O)/C(=N/OC)c1ccccc1COc1ncccc1C(F)(F)F | 90% | 90% | – | – | – | 90% | 90% | 90% | 90% | 90% | – | – | – | – | – | – | Activity [1]: 90%; Activity (Pyricularia oryzae [16]): 90%; Activity (Pyricularia oryzae [17]): 90% |
| CNC(=O)/C(=N/OC)c1ccccc1COc1ncc(C(F)(F)F)cc1Cl | 90% | 90% | – | – | – | – | – | 90% | – | 90% | 90% | 90% | 90% | 90% | – | – | Activity [18]: 90%; Activity (Botrytis cinerea [3]): 90% |
| CNC(=O)/C(=N/OC)c1ccccc1COc1ncc(Cl)cc1Cl | – | – | 90% | 90% | – | – | – | 90% | – | – | 90% | 90% | – | 90% | 90% | – | Activity (Botrytis cinerea [23]): 90%; Activity [24]: 90%; Activity [26]: 90% |
| CNC(=O)/C(=N/OC)c1ccccc1COc1ncc(Cl)cc1C(F)(F)F | 90% | 90% | – | – | – | 90% | – | 90% | – | 90% | 90% | 90% | 90% | 90% | – | – | Activity [18]: 90% |
| CNC(=O)/C(=N/OC)c1ccccc1COc1nc(Cl)ccc1C(F)(F)F | – | 90% | – | – | – | 90% | – | 90% | – | 90% | 90% | 90% | 90% | 90% | – | – | Activity [24]: 90%; Activity (Botrytis cinerea [27]): 90% |
| CNC(=O)/C(=N/OC)c1ccccc1COc1ccc(C(F)(F)F)c(OC(C)C)n1 | – | – | – | – | 90% | – | 90% | – | 90% | – | – | – | – | – | – | <90% | Activity (Botrytis cinerea [29]): <90%; Activity (Podosphaera fuliginea [30]): 90%; Activity (Botrytis cinerea [31]): <90%; Activity [32]: 90%; Activity [33]: 90%; Activity (Pyricularia oryzae [34]): 90% |
| CNC(=O)/C(=N/OC)c1ccccc1COc1nc(Cl)c(C(F)(F)F)cc1Cl | – | 90% | 90% | 90% | – | 90% | – | 90% | – | – | 90% | 90% | – | – | 90% | 90% | Activity (Pyricularia oryzae [35]): 90% |
| CNC(=O)/C(=N/OC)c1ccccc1COc1ccccn1 | – | – | 90% | – | <90% | – | 90% | – | 90% | – | – | – | – | – | 90% | 90% | Activity (Botrytis cinerea [23]): 90%; Activity (Podosphaera fuliginea [4]): 90%; Activity [36]: 90%; Activity (Pyricularia oryzae [34]): <90% |
